Laboratory results as given in paper PMC4775387 (Neurochemical research, 2015).

System: D4 receptors, ICR mouse striatum
Assay: Antagonist effect on D-301-stimulated [35S]GTPγS binding in ICR mouse striatum
Type: biochemical
Details: antagonist concentrations up to 1 μM, unpublished data

SMILES: Clc1ccc(N2CCN(Cc3c[nH]c4ncccc34)CC2)cc1 [LY745870]
- effect on D-301-stimulated [35S]GTPγS binding: no significant effect
